Data: patent publication US20240139220A1, “TREATMENT OF HPV INFECTION” (priority 2022, published 2024)
Like-named read-outs stand apart in the source and are kept apart here.

Assays:
[1] = tested on: C33A cells; test: In vitro cytotoxicity, XTT, five days; conditions: read-out: C33A CC50
Description: (§1) Three compounds (Compound I, Compound II and Compound III) were solubilized at 40 mM in DMSO and stored at −20° C. The test compounds were evaluated using a high test concentration of 50 μM. Serial half-logarithmic dilutions were performed for the in vitro cytotoxicity assays.
(§2) Cells listed in Table 70 were enumerated by Trypan Blue Dye exclusion method and seeded in the interior wells of a 96 well flat bottom microtiter plate at 100 μL/well. Proliferating cells were incubated overnight at 37° C./5% CO2 to allow the cells to adhere to the plates at approximately 70% confluency. Tissue culture medium was removed and replaced with 100 μL/well of fresh medium. One-hundred microliters (100 μL) of each compound at six concentrations was transferred to the 96-well plate containing the cells in triplicate. Table 70 lists the cell line, type of cell, source of cell stock, base tissue culture medium supplemented with 10% fetal bovine serum, 2 mM L-glutamine, 100 U/mL penicillin and 100 μg/mL streptomycin, and microtiter plate seeding density.
(§3) Following incubation at 37′C in a 5% CO2 incubator for five days, the test plates were stained with the tetrazolium dye XTT (2,3-bis(2-methoxy-4-nitro-5-sulfopheny1)-5-[(phenylamino)carbonyl]-2H-tetrazolium hydroxide). XTT-tetrazolium was metabolized by the mitochondrial enzymes of metabolically active cells to a soluble formazan product. XTT solution was prepared daily as a stock of 1 mg/ml in RPM11640. Phenazine methosulfate (PMS) solution was prepared at 0.15 mg/ml in PBS and stored in the dark at −20° C. XTT/PMS stock was prepared immediately before use by adding 40 μL of PMS per ml of XTT solution. Fifty microliters of XTT/PMS were added to each well of the plate and the plate was reincubated for 4 hours at 37° C. Plates were sealed with adhesive plate sealers and shaken gently or inverted several times to mix the soluble formazan product and the plate was read spectrophotometrically at 450/650 nm with a Molecular Devices Vmax plate reader.
(§4) Microsoft Excel 2010 was used to analyze and graph the raw data. CCso (50% reduction in cell viability) values are tabulated and provided. Raw data for cytotoxicity with a graphic representation of the data are provided in a printout summarizing the compound effect on cell viability.
(§5) Compounds I, II, and III were evaluated for cytotoxicity to proliferating Hs27, HeLa, C33A and HEK293 cells by measuring cell viability using XTI tetrazolium dye following five days in culture (Table 71).

[2] = tested on: HeLa cells; test: In vitro cytotoxicity, XTT, five days
Description: as §1, §2, §3, §4, §5

[3] = tested on: Hs27 cells; test: In vitro cytotoxicity, XTT, five days
Description: as §1, §2, §3, §4, §5

[4] = tested on: HEK293 cells
Description: as §1
Cells listed in Table 70 were enumerated by Trypan Blue Dye exclusion method and seeded in the interior wells of a 96 well flat bottom microtiter plate at 100 μL/well. Proliferating cells were incubated overnight at 37° C./5% CO2 to allow the cells to adhere to the plates at approximately 70% confluency. Tissue culture medium was removed and replaced with 100 μL/well of fresh medium. […]
Following incubation at 37′C in a 5% CO2 incubator for five days, the test plates were stained with the tetrazolium dye XTT (2,3-bis(2-methoxy-4-nitro-5-sulfopheny1)-5-[(phenylamino)carbonyl]-2H-tetrazolium hydroxide). […] Plates were sealed with adhesive plate sealers and shaken gently or inverted several times to mix the soluble formazan product and the plate was read spectrophotometrically at 450/650 nm with a Molecular Devices Vmax plate reader. […]
as §5

[5] = Hygroscicity by Dynamic Vapor Sorption (DVS) at 25° C.; assay type: physicochemical
Description: Hygroscopicity was investigated by DVS at 25° C., using the following method: […]

[6] = Ex vivo permeation and penetration across porcine vaginal tissue (Franz diffusion cells, IVPT); assay type: in vitro ADME; conditions: porcine vaginal tissue, FIG. 116; Compound II 0.1% gel, ABI-1968 1% and 3% formulations
Excerpt: (§6) FIG. 116 is an in vitro tissue permeation test in vaginal tissue comparing Compound II to ABI-1968. […] Bars B and C show the tissue penetration of a 0.1% Compound II gel in […]. […] This may be a contributing factor to the performance of ABI-1968 in clinical studies. […] This is described in Example 41.
Freshly harvested porcine vaginal tissue was procured from local slaughterhouse in an ice box. The vaginal tissue was cut open to expose the mucosal surface and tissue was cleaned by gentle flow of PBS pH 7.4. The porcine vaginal tissue was cut into circular portions (approximately 2 cm^2) with help of a […] punch.
The circular portion of tissue was sandwiched between two chambers of a Franz diffusion cell with an active diffusion area of 1 cm^2, and the mucosal layer was exposed to the donor chambers. The resistance across porcine vaginal tissue was measured using a wave form generator to ensure the integrity of the tissue segment used for the permeation study. Porcine vaginal tissue with resistance of ≥3 KΩ.cm^2 was used for study. The receiver chamber was filled with 8 ml of 5% solutol PBS 7.4 pH, which was stirred at 600 rpm with a 3 mm magnetic stir bar and the temperature was maintained at 37° C. with a circulating water bath.
The ˜200 mg of gel was filled into tared 1 mL syringe and gel was dispensed to donor chamber. The gel was spread on to mucosal surface with pre weighed applicator. After loading and spreading of the gel onto surface of mucosal surface, the weight of 1 mL syringe and applicator was noted to determine the exact amount of gel loaded into donor chamber.
Time course (2 h, 4 h and 8 h) porcine vaginal permeation studies were performed. After loading gel, 500 μL samples were withdrawn from the receiver compartment at different time intervals and each time an equal volume of fresh receiver media was used to replace withdrawn samples. The sample withdrawn at each time interval were stored immediately in −20° C. until analysis. After 2, 4 and 8 h, the formulation was removed from the donor chamber with help of syringe and cleaned with cotton swab. The tissue was removed and washed gently with wash solution (50% methanol in water) 5 times and alternatively cleaning with cotton swab.
An 8 mm punch of active diffusion area of washed porcine vaginal tissue was removed, weighed and transferred into a tube. This tube was immediately placed into dry ice for ˜15 min. After specified time, tissue was removed and placed in precooled dish. The tissue was minced into smaller pieces on a dish with a precooled surgical blade. The minced tissue was transferred to sample tubes and dish was rinsed with 1 ml of 5% solutol in PBS 7.4 pH and transferred to same tissue sample tube. These tubes were stored in −70° C. until analysis.
The samples stored at −20° C. was removed and thawed at room temperature for 30 min. The drug from receptor fluid was centrifuged at 13000 rpm for 5 min and to 200 μL of supernatant equal volume of extraction solvent was added. These samples were centrifuged at 13000 rpm for 5 min and supernatant was transferred into vials for analysis.
The minced tissue samples stored at −70° C. were removed and thawed at room temperature for ˜90 min. The samples were kept for shaking at room temperature for 4 h in BioShaker. After 4 h, samples were centrifuged at 13000 rpm for 5 min. To 100 μL of supernatant, 400 μL of extraction solvent was added and vortexed for 2 min. […]

[7] = In vitro tissue permeation test in human cervical tissue; assay type: in vitro ADME; conditions: 0.1% gel, FIG. 116
Excerpt: as §6

Q: Which CC50 [1] does the source give for `CCOC(=O)C(C)NP(=O)(COCCn1cnc2c(OC)nc(N)nc21)OCc1ccccc1` (mixture of isomers) [ABl2280] here?
A: 0.28 µM

Q: And the CC50 ([2]; read-out: HeLa CC50, HeLa cells, XTT, five days)?
A: 18.6 µM

Q: And the CC50 ([3]; read-out: Hs27 CC50, Hs27 cells, XTT, five days)?
A: 22.9 µM

Q: Which CC50 [1] does the source give for `CCOC(=O)C(C)NP(=O)(COCCn1cnc2c(OC)nc(N)nc21)OCc1ccccc1` (single isomer, unassigned; isomer 1) [ABl2280 Isomer 1] here?
A: 0.2 µM

Q: And the CC50 [2]?
A: 15.1 µM

Q: And the CC50 [3]?
A: 23.2 µM

Q: What about the CC50 [4] of the same molecule?
A: < 0.16 µM

Q: Which results are given for `CCOC(=O)C(C)NP(=O)(COCCn1cnc2c(OC)nc(N)nc21)OCc1ccccc1` (single isomer, unassigned; isomer 2) [ABl2280 Isomer 2]?
A: CC50 [1]: < 0.16 µM; CC50 [2]: 16.9 µM; CC50 [3]: 7.62 µM; CC50 [4]: < 0.16 µM

Q: Which “XRPD pattern after humidity cycle” value ([5]; cycle of 40-0-95-0-45% relative humidity) does the source give for `CCOC(=O)[C@H](C)N[P@@](=O)(COCCn1cnc2c(OC)nc(N)nc21)OCc1ccccc1.O=C(O)/C=C/C(=O)O` [Compound II] here?
A: does not change

Q: And the Water content retained ([5]; exposed to a cycle of 40-0-95-0-45% relative humidity)?
A: about 0.25%

Q: And the “Tissue penetration” value [6]?
A: high tissue penetration

Q: And the “Tissue penetration” value [7]?
A: high tissue penetration
